Literature values in patent publication US20100317636A1, “REDUCING THE RISK OF CHRONIC LUNG DISEASE IN INFANTS” (China Medical University, a Taiwan corporation, priority 2006, published 2010).

What was measured:
[1] = Ryrfeldt et al. (1982)

For CCCC1O[C@@H]2C[C@H]3[C@@H]4CCC5=CC(=O)C=C[C@]5(C)[C@H]4[C@@H](O)C[C@]3(C)[C@]2(C(=O)CO)O1 (stereo partly drawn) [Budesonide, 16 alpha, 17 alpha-(22R,S)-propylmethylenedioxypregna-1,4-diene-11 beta, 21-diol-3,20-dione], the solubility in chloroform (chloroform) is listed as “freely soluble”, the solubility in ethanol (ethanol) is listed as “sparingly soluble” and the solubility in heptane (heptane) is listed as “practically insoluble”. The solubility in water (water) was “practically insoluble” and the “degradation in the liver” value [1] was “rapidly degraded”.
